Measurements from patent US20260364215A1, “Radiopharmaceutical Compositions Targeting Ephrin Type-A Receptor 2 and Uses Thereof” (PeptiDream Inc., priority 2022, published 2026).
Read-outs that look alike come from different tables or passages of the source. Numbered stars: 1 amine (or outer) side, 2 acyl side, 3 side chain; on linkers, the order of the positions; unused ones are H or OH. Bridge positions count the residues as written; N and C are the ends. Square brackets hold non-standard residues; d marks the D form. Side chains are listed from the residue outwards. Peptide text beside a SMILES is read from it. * marks the point of attachment. DOTA(Lu) = O=C1CN2CCN3CCN(CC(=O)*)CCN(CC2)CC(=O)[O][Lu]([O]1)[O]C(=O)C3; NH(1-deoxy-D-glucityl) = OC[C@@H](O)[C@@H](O)[C@H](O)[C@@H](O)CN*; DOTA = O=C(O)CN1CCN(CC(=O)O)CCN(CC(=O)*)CCN(CC(=O)O)CC1; Trp(1-Me,7-Cl) = Cn1cc(C[C@H](N)C(=O)O)c2cccc(Cl)c21; dPhe(3-CONH2) = NC(=O)c1cccc(C[C@@H](N)C(=O)O)c1; Piperazinyl(4-CH2COOH) = O=C(O)CN1CCN(*)CC1; Trp(1-Me) = Cn1cc(C[C@H](N)C(=O)O)c2ccccc21; NMemTyr = CN[C@@H](Cc1cccc(O)c1)C(=O)O; NMe3Pal = CN[C@@H](Cc1cccnc1)C(=O)O; NMeF = CN[C@@H](Cc1ccccc1)C(=O)O; Gly(cBu) = N[C@H](C(=O)O)C1CCC1; NMeE = CN[C@@H](CCC(=O)O)C(=O)O; Aad = N[C@@H](CCCC(=O)O)C(=O)O; NMeN = CN[C@@H](CC(N)=O)C(=O)O; CO = O=C([*:1])[*:2]

Molecular target: T1, Recombinant Human EphA2 Fc Protein (Homo sapiens, UniProt P29317)
T1 construct: purchased Elabscience
T1 sequence (P29317 24-534 limits assumed): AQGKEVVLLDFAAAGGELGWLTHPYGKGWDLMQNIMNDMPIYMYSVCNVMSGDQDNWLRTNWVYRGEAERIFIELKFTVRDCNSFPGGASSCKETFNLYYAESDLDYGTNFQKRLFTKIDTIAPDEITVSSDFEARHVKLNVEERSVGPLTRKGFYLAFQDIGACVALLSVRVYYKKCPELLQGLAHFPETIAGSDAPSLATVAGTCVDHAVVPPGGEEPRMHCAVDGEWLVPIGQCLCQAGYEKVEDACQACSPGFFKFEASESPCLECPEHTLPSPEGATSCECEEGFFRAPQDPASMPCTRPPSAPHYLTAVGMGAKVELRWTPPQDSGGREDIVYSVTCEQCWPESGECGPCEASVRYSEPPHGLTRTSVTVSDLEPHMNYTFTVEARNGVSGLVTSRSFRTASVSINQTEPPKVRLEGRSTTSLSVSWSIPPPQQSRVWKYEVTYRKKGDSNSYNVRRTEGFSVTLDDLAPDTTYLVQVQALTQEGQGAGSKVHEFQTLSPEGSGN
Test: Interaction analysis (kinetics, KD) of peptides and conjugates against EphA2 by SPR, Biacore T200, single-cycle kinetics (Examples B15 and B22)
Type: binding
How it was run: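 Biacore T200 SPR with Fc-tagged human EphA2 captured via anti-human antibody; running buffer HBS-P+ pH 7.4 with 1% DMSO, 25 °C. Five serial dilutions of peptide or conjugate run by single-cycle kinetics; KD from ka and kd after baseline subtraction.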

[1] = conjugates, Biacore T200 according to Example B15, Table B16, read-out: SPR Kd

CC(C)C[C@@H]1NC(=O)[C@H](CC(N)=O)NC(=O)[C@H](Cc2cccnc2)N(C)C(=O)[C@@H](Cc2cccc(C(N)=O)c2)NC(=O)CSC[C@@H](C(N)=O)NC(=O)[C@H](CCCC(N)=O)NC(=O)[C@H]([C@@H](C)O)NC(=O)[C@H](Cc2cn(C)c3ccccc23)NC(=O)[C@H](CCCCNC(=O)CN2CCN3CCN4CCN(CC2)CC(=O)[O][Lu]([O]C(=O)C3)[O]C(=O)C4)NC(=O)[C@H](Cc2cn(C)c3c(Cl)cccc23)NC(=O)[C@H](CCC(=O)O)N(C)C(=O)[C@H](CCCC(N)=O)NC1=O [PDC_EphA2-00026718] ({CH2CO}-[dPhe(3-CONH2)][NMe3Pal]NL[Aad](NH2)[NMeE][Trp(1-Me,7-Cl)]K(DOTA(Lu))[Trp(1-Me)]T[Aad](NH2)C-NH2; thioether N-12)
Kd: < 1 nM

CC(C)C[C@@H]1NC(=O)[C@H](CC(N)=O)NC(=O)[C@H](Cc2cccnc2)N(C)C(=O)[C@@H](Cc2cccc(C(N)=O)c2)NC(=O)CSC[C@@H](C(N)=O)NC(=O)[C@H](CCCCNC(=O)CN2CCN(CC(=O)O)CCN(CC(=O)O)CCN(CC(=O)O)CC2)NC(=O)[C@H]([C@@H](C)O)NC(=O)[C@H](Cc2cn(C)c3ccccc23)NC(=O)[C@H](CCCCNC(=O)N2CCN(CC(=O)O)CC2)NC(=O)[C@H](Cc2cn(C)c3c(Cl)cccc23)NC(=O)[C@H](CCC(=O)O)N(C)C(=O)[C@H](CCCC(N)=O)NC1=O.[Lu+3] [PDC_EphA2-00026719] ({CH2CO}-[dPhe(3-CONH2)][NMe3Pal]NL[Aad](NH2)[NMeE][Trp(1-Me,7-Cl)]K([CO-Piperazinyl(4-CH2COOH)])[Trp(1-Me)]TK(DOTA)C-NH2; thioether N-12)
Kd [1]: < 1 nM

CC(C)C[C@@H]1NC(=O)[C@H](CC(N)=O)NC(=O)[C@H](Cc2cccnc2)N(C)C(=O)[C@@H](C)NC(=O)CSC[C@@H](C(=O)N[C@H](CCCCNC(=O)CN2CCN(CC(=O)O)CCN(CC(=O)O)CCN(CC(=O)O)CC2)C(N)=O)NC(=O)[C@H](CCCC(N)=O)NC(=O)[C@H]([C@@H](C)O)NC(=O)[C@H](Cc2cn(C)c3ccccc23)NC(=O)[C@H](CCCCNC(=O)N2CCN(CC(=O)O)CC2)NC(=O)[C@H](Cc2cn(C)c3ccccc23)NC(=O)[C@H](CCC(=O)O)N(C)C(=O)[C@H](CCCC(N)=O)NC1=O.[Lu+3] [PDC_EphA2-00026772] ({CH2CO}-[dA][NMe3Pal]NL[Aad](NH2)[NMeE][Trp(1-Me)]K([CO-Piperazinyl(4-CH2COOH)])[Trp(1-Me)]T[Aad](NH2)C[dK](DOTA)-NH2; thioether N-12)
Kd [1]: < 1 nM

CC(C)[C@@H]1NC(=O)[C@H](Cc2cn(C)c3ccccc23)NC(=O)[C@H](CC(N)=O)N(C)C(=O)[C@H](CCCC(N)=O)NC(=O)[C@H](C2CCC2)NC(=O)[C@H](CC(N)=O)NC(=O)[C@H](Cc2ccccc2)N(C)C(=O)[C@@H](C)NC(=O)CSC[C@@H](C(=O)N[C@H](CCCCNC(=O)CN2CCN(CC(=O)O)CCN(CC(=O)O)CCN(CC(=O)O)CC2)C(=O)O)NC(=O)[C@H](CCCC(N)=O)NC(=O)[C@H]([C@@H](C)O)NC(=O)[C@H](Cc2cn(C)c3ccccc23)NC1=O.[Lu+3] [PDC_EphA2-00026773] ({CH2CO}-[dA][NMeF]N[Gly(cBu)][Aad](NH2)[NMeN][Trp(1-Me)]V[Trp(1-Me)]T[Aad](NH2)C[dK](DOTA)-OH; thioether N-12)
Kd [1]: < 1 nM

C[C@@H](O)[C@@H]1NC(=O)[C@H](Cc2cn(C)c3ccccc23)NC(=O)[C@H](CCC(=O)NC[C@H](O)[C@@H](O)[C@H](O)[C@H](O)CO)NC(=O)[C@H](Cc2cn(C)c3c(Cl)cccc23)NC(=O)[C@H](Cc2cccnc2)N(C)C(=O)[C@H](CCCC(N)=O)NC(=O)[C@H](C2CCC2)NC(=O)[C@H](CC(N)=O)NC(=O)[C@H](Cc2cccnc2)N(C)C(=O)[C@@H](Cc2cccc(C(N)=O)c2)NC(=O)CSC[C@@H](C(=O)N[C@H](CCCCNC(=O)CN2CCN(CC(=O)O)CCN(CC(=O)O)CCN(CC(=O)O)CC2)C(=O)O)NC(=O)[C@H](CCCC(N)=O)NC1=O.[Lu+3] [PDC_EphA2-00026774] ({CH2CO}-[dPhe(3-CONH2)][NMe3Pal]N[Gly(cBu)][Aad](NH2)[NMe3Pal][Trp(1-Me,7-Cl)]E(NH(1-deoxy-D-glucityl))[Trp(1-Me)]T[Aad](NH2)C[dK](DOTA)-OH; thioether N-12)
Kd [1]: < 1 nM

C[C@@H](O)[C@@H]1NC(=O)[C@H](Cc2cn(C)c3ccccc23)NC(=O)[C@H](CCCCNC(=O)N2CCN(CC(=O)O)CC2)NC(=O)[C@H](Cc2cn(C)c3c(Cl)cccc23)NC(=O)[C@H](CCC(=O)O)N(C)C(=O)[C@H](CCCC(N)=O)NC(=O)[C@H](C2CCC2)NC(=O)[C@H](CC(N)=O)NC(=O)[C@H](Cc2cccc(O)c2)N(C)C(=O)[C@@H](Cc2cccc(C(N)=O)c2)NC(=O)CSC[C@@H](C(=O)N[C@H](CCCCNC(=O)CN2CCN3CCN4CCN(CC2)CC(=O)[O][Lu]([O]C(=O)C3)[O]C(=O)C4)C(=O)O)NC(=O)[C@H](CCCC(N)=O)NC1=O [PDC_EphA2-00026775] ({CH2CO}-[dPhe(3-CONH2)][NMemTyr]N[Gly(cBu)][Aad](NH2)[NMeE][Trp(1-Me,7-Cl)]K([CO-Piperazinyl(4-CH2COOH)])[Trp(1-Me)]T[Aad](NH2)C[dK](DOTA(Lu))-OH; thioether N-12)
Kd: < 1 nM

C[C@H]1NC(=O)CSC[C@@H](C(=O)N[C@H](CCC(=O)O)C(=O)O)NC(=O)[C@H](CCCC(N)=O)NC(=O)[C@H]([C@@H](C)O)NC(=O)[C@H](Cc2cn(C)c3ccccc23)NC(=O)[C@H](CCCCNC(=O)N2CCN(CC(=O)O)CC2)NC(=O)[C@H](Cc2cn(C)c3c(Cl)cccc23)NC(=O)[C@H](CCC(=O)O)N(C)C(=O)[C@H](CCCCNC(=O)CN2CCN(CC(=O)O)CCN(CC(=O)O)CCN(CC(=O)O)CC2)NC(=O)[C@H](C2CCC2)NC(=O)[C@H](CC(N)=O)NC(=O)[C@H](Cc2cccnc2)N(C)C1=O.[Lu+3] [PDC_EphA2-00027103] ({CH2CO}-[dA][NMe3Pal]N[Gly(cBu)]K(DOTA)[NMeE][Trp(1-Me,7-Cl)]K([CO-Piperazinyl(4-CH2COOH)])[Trp(1-Me)]T[Aad](NH2)C[dE]-OH; thioether N-12)
Kd [1]: < 1 nM

C[C@@H](O)[C@@H]1NC(=O)[C@H](Cc2cn(C)c3ccccc23)NC(=O)[C@H](CCCCNC(=O)N2CCN(CC(=O)O)CC2)NC(=O)[C@H](Cc2cn(C)c3c(Cl)cccc23)NC(=O)[C@H](CCC(=O)O)N(C)C(=O)[C@H](CCCCNC(=O)CN2CCN(CC(=O)O)CCN(CC(=O)O)CCN(CC(=O)O)CC2)NC(=O)[C@H](C2CCC2)NC(=O)[C@H](CC(N)=O)NC(=O)[C@H](Cc2cccnc2)N(C)C(=O)[C@@H](Cc2cccc(C(N)=O)c2)NC(=O)CSC[C@@H](C(=O)N[C@H](CCC(=O)O)C(=O)O)NC(=O)[C@H](CCCC(N)=O)NC1=O.[Lu+3] [PDC_EphA2-00027104] ({CH2CO}-[dPhe(3-CONH2)][NMe3Pal]N[Gly(cBu)]K(DOTA)[NMeE][Trp(1-Me,7-Cl)]K([CO-Piperazinyl(4-CH2COOH)])[Trp(1-Me)]T[Aad](NH2)C[dE]-OH; thioether N-12)
Kd [1]: < 1 nM

C[C@H]1NC(=O)CSC[C@@H](C(=O)N[C@H](CCC(=O)O)C(N)=O)NC(=O)[C@H](CCCC(N)=O)NC(=O)[C@H]([C@@H](C)O)NC(=O)[C@H](Cc2cn(C)c3ccccc23)NC(=O)[C@H](CCCCNC(=O)N2CCN(CC(=O)O)CC2)NC(=O)[C@H](Cc2cn(C)c3c(Cl)cccc23)NC(=O)[C@H](CCC(=O)O)N(C)C(=O)[C@H](CCCCNC(=O)CN2CCN(CC(=O)O)CCN(CC(=O)O)CCN(CC(=O)O)CC2)NC(=O)[C@H](C2CCC2)NC(=O)[C@H](CC(N)=O)NC(=O)[C@H](Cc2cccnc2)N(C)C1=O.[Lu+3] [PDC_EphA2-00027105] ({CH2CO}-[dA][NMe3Pal]N[Gly(cBu)]K(DOTA)[NMeE][Trp(1-Me,7-Cl)]K([CO-Piperazinyl(4-CH2COOH)])[Trp(1-Me)]T[Aad](NH2)C[dE]-NH2; thioether N-12)
Kd [1]: < 1 nM

C[C@@H](O)[C@@H]1NC(=O)[C@H](Cc2cn(C)c3ccccc23)NC(=O)[C@H](CCCCNC(=O)N2CCN(CC(=O)O)CC2)NC(=O)[C@H](Cc2cn(C)c3c(Cl)cccc23)NC(=O)[C@H](CCC(=O)O)N(C)C(=O)[C@H](CCCCNC(=O)CN2CCN(CC(=O)O)CCN(CC(=O)O)CCN(CC(=O)O)CC2)NC(=O)[C@H](C2CCC2)NC(=O)[C@H](CC(N)=O)NC(=O)[C@H](Cc2cccnc2)N(C)C(=O)[C@@H](Cc2cccc(C(N)=O)c2)NC(=O)CSC[C@@H](C(=O)N[C@H](CCC(=O)O)C(N)=O)NC(=O)[C@H](CCCC(N)=O)NC1=O.[Lu+3] [PDC_EphA2-00027106] ({CH2CO}-[dPhe(3-CONH2)][NMe3Pal]N[Gly(cBu)]K(DOTA)[NMeE][Trp(1-Me,7-Cl)]K([CO-Piperazinyl(4-CH2COOH)])[Trp(1-Me)]T[Aad](NH2)C[dE]-NH2; thioether N-12)
Kd [1]: < 1 nM

C[C@H]1NC(=O)CSC[C@@H](C(=O)N[C@H](CCC(=O)O)C(N)=O)NC(=O)[C@H](CCCC(N)=O)NC(=O)[C@H]([C@@H](C)O)NC(=O)[C@H](Cc2cn(C)c3ccccc23)NC(=O)[C@H](CCCCNC(=O)N2CCN(CC(=O)O)CC2)NC(=O)[C@H](Cc2cn(C)c3c(Cl)cccc23)NC(=O)[C@H](CCC(=O)O)N(C)C(=O)[C@H](CCCCNC(=O)[C@@H](CCC(=O)O)NC(=O)CN2CCN(CC(=O)O)CCN(CC(=O)O)CCN(CC(=O)O)CC2)NC(=O)[C@H](C2CCC2)NC(=O)[C@H](CC(N)=O)NC(=O)[C@H](Cc2cccnc2)N(C)C1=O.[Lu+3] [PDC_EphA2-00027126] ({CH2CO}-[dA][NMe3Pal]N[Gly(cBu)]K([dE-DOTA])[NMeE][Trp(1-Me,7-Cl)]K([CO-Piperazinyl(4-CH2COOH)])[Trp(1-Me)]T[Aad](NH2)C[dE]-NH2; thioether N-12)
Kd [1]: < 1 nM

C[C@H]1NC(=O)CSC[C@@H](C(=O)N[C@H](CCC(=O)O)C(N)=O)NC(=O)[C@H](CCCC(N)=O)NC(=O)[C@H]([C@@H](C)O)NC(=O)[C@H](Cc2cn(C)c3ccccc23)NC(=O)[C@H](CCCCNC(=O)N2CCN(CC(=O)O)CC2)NC(=O)[C@H](Cc2cn(C)c3c(Cl)cccc23)NC(=O)[C@H](CCC(=O)O)N(C)C(=O)[C@H](CCCCNC(=O)[C@@H](Cc2ccccc2)NC(=O)CN2CCN3CCN4CCN(CC2)CC(=O)[O][Lu]([O]C(=O)C3)[O]C(=O)C4)NC(=O)[C@H](C2CCC2)NC(=O)[C@H](CC(N)=O)NC(=O)[C@H](Cc2cccnc2)N(C)C1=O [PDC_EphA2-00027127] ({CH2CO}-[dA][NMe3Pal]N[Gly(cBu)]K([dF-DOTA(Lu)])[NMeE][Trp(1-Me,7-Cl)]K([CO-Piperazinyl(4-CH2COOH)])[Trp(1-Me)]T[Aad](NH2)C[dE]-NH2; thioether N-12)
Kd: < 1 nM
